Our source for the IC50 values is ChEMBL document CHEMBL4476876, “Compounds for the modulation of myc activity” (2018).

SMILES strings stand for the structures. Where only a bound is given, the exact number is not on record here.

In one test the test system is NCI-H2171. In words: Antiproliferative activity against human NCI-H2171 cells after 72 hrs by ATPlite assay. As to conditions: NCI-H2171, 72 h. Format: functional, cell-based.
For test [1], the target named is Myc proto-oncogene protein (Homo sapiens, UniProt P01106). Nature of the test: Inhibition of human c-Myc assessed as reduction in c-Myc/Max/Ebox DNA complex formation using pre-formed complex of c-Myc and biotinylated DNA containing single Ebox-sequence followed by compound addition and further addition of his6-tagged c-Max and incubated for 2 hrs by AlphaScreen assay.
Sequence of Myc proto-oncogene protein (P01106 whole entry): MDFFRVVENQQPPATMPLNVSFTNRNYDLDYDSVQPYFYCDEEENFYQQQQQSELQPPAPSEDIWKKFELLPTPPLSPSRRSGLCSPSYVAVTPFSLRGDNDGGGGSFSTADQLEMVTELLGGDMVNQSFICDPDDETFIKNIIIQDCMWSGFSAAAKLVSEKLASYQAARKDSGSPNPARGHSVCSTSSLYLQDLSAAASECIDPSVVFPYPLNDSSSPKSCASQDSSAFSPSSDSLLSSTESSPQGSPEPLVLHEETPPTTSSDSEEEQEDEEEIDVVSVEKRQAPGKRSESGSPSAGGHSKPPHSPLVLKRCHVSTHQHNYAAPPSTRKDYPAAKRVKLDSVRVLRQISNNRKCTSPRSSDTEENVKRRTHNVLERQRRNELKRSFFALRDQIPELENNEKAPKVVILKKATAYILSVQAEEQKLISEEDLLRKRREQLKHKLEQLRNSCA

Regarding `CCN1[C@H](C)Cc2c(sc(NC(C)=O)c2-c2nc3c(C(F)F)nccc3s2)[C@H]1C`, in the test on NCI-H2171, the concentration for half-maximal inhibition (IC50) is < 500 nM. As for `O=C(CC[N+]12CCN(CC1)CC2)Nc1sc2c(c1-c1nc3cnccc3s1)CCNC2`, the half-maximal inhibitory concentration (IC50) in test [1] is < 500 nM. With `CC[C@H](C)NCCC(=O)Nc1sc2c(c1-c1nc3cnccc3s1)C[C@H](C)NC2`, the IC50 in the test with NCI-H2171 is < 500 nM. Still for that read-out and setting: then `CC[C@H](C)NCCC(=O)Nc1sc2c(c1-c1nc3cnccc3s1)CN[C@H](C)C2`, with < 500 nM.
